What was measured:
AarC (AarCH6) [1] = target: T1, AarC (AarCH6) (Acetobacter aceti, UniProt B3EY95); experiment: X-ray crystallography (co-crystal); assay type: binding; settings: sodium citrate, imidazole pH 8.2, 22 °C
T1 construct: C-terminal hexahistidine tag kept, plasmid pJK385 (N347A: pJK524), expressed in E. coli C41(DE3) pREP4-groESL, homodimer

AarC (AarCH6) [2] = target: T2, AarC (AarCH6) (Acetobacter aceti, UniProt B3EY95, N347A); experiment: X-ray crystallography (co-crystal); assay type: binding; settings: 10 mM CoA, sodium citrate, imidazole pH 8.2, 22 °C; 2.13 Å; active site
T2 construct: C-terminal hexahistidine tag kept, plasmid pJK385 (N347A: pJK524), expressed in E. coli C41(DE3) pREP4-groESL, homodimer
T2 sequence (B3EY95 whole entry N347A): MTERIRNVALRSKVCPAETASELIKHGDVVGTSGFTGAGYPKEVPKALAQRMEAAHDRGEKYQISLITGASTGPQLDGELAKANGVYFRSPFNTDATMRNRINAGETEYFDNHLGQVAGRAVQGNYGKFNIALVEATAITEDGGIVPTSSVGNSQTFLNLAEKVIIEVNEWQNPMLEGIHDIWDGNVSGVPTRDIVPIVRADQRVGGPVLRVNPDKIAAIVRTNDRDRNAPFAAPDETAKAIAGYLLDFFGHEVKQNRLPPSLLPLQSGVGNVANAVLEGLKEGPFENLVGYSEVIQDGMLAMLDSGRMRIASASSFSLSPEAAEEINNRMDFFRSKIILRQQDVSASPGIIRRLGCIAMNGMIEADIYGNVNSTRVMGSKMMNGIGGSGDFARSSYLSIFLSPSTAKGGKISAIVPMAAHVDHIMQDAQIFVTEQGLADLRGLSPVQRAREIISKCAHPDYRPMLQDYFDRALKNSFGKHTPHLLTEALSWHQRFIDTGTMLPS

Q: With `CC(=O)O` [acetate] as the molecule, how does the “X-ray crystallography (co-crystal)” value (AarC (AarCH6) [1]; 1-50 mM sodium acetate, 1.62 Å, three sites per subunit, the first near the active site, also in 5dw6 with 2a) read?
A: The final model contained three acetate binding sites in each subunit

Q: For `CC(C)(COP(=O)(O)OP(=O)(O)OC[C@H]1O[C@@H](n2cnc3c(N)ncnc32)[C@H](O)[C@@H]1OP(=O)(O)O)[C@@H](O)C(=O)NCCC(=O)NCCS` [CoA], which “X-ray crystallography (co-crystal)” value (AarC (AarCH6) [2]) is on record?
A: The B subunits of AarC-N347A (PDB entry 5ddk, white carbon atoms)

Q: With `CCCNC(=O)CCNC(=O)[C@H](O)C(C)(C)COP(=O)(O)OP(=O)(O)OC[C@H]1O[C@@H](n2cnc3c(N)ncnc32)[C@H](O)[C@@H]1OP(=O)(O)O` [2a, 3′-phosphoadenosine 5′-(O-(N-propyl-R-pantothenamide))pyrophosphate] as the molecule, how does the “X-ray crystallography (co-crystal)” value (AarC (AarCH6) [1]; 1-3 mM 2a, 1.66 Å, active site, 5dw6 is the complex with added acetate (1.55 Å)) read?
A: The AarC•2a complex (PDB entry 5dw5) contained three chloride ions

From publication PMC4876117, “Functional Dissection of the Bipartite Active Site of the Class I Coenzyme A (CoA)-Transferase Succinyl-CoA:Acetate CoA-Transferase” (Frontiers in Chemistry, 2016)
